Active and inactive are the calls of the source.
Key:
[1] = molecular target: Mitochondrial peptide methionine sulfoxide reductase (Bos taurus, UniProt P54149); test: Absorbance-based biochemical high throughput dose response assay for activators of Methionine sulfoxide reductase A (MsrA).; type: functional
[2] = viability loss in THP-1 monocytes – THP-1 cells, cytotoxicity control for Vif-APOBEC3G degradation inhibitor project, dose response (AID 1117359); type: functional; details: THP-1
[3] = general cell-killing toxicity readout – plate reader, dry powder samples, cytotoxicity control for PAX8 inhibitor project, dose response (AID 743021); type: functional, cell-based
[4] = molecular target: Dual specificity tyrosine-phosphorylation-regulated kinase 1A (Rattus norvegicus, UniProt Q63470); type: biochemical, Homo sapiens
Genome polyprotein = Genome polyprotein (dengue virus type 2, UniProt P29990); test: flavivirus cap methylation enzyme inhibition – biochemical, confirmation dose response, primary screen (AID 588689); type: functional
Phospholipase A2 = Phospholipase A2 (Homo sapiens, UniProt P04054); type: functional;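 also: confirmatory dose-response counterscreen on phospholipase A2, testing hits that came from an ultra-high-throughput screen for ATG4B inhibitors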
Paired box protein Pax-8 = Paired box protein Pax-8 (Homo sapiens, UniProt Q06710); test: PAX8 transcriptional activity inhibition in RMG-I – RMG-I cells, luciferase, cherry-pick, dose response (AID 687027); type: functional, cell-based;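 also: luciferase reporter driven by Pax8 target thyroperoxidase promoter measured by SteadyGlo luminescence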
Hexokinase HKDC1 = molecular target: T1, Hexokinase HKDC1 (Homo sapiens, UniProt Q2TB90); test: inhibition of HKDC1 glucose phosphorylation – biochemical, W721R variant, dose response (AID 504729); type: functional
T1 sequence (Q2TB90 whole entry): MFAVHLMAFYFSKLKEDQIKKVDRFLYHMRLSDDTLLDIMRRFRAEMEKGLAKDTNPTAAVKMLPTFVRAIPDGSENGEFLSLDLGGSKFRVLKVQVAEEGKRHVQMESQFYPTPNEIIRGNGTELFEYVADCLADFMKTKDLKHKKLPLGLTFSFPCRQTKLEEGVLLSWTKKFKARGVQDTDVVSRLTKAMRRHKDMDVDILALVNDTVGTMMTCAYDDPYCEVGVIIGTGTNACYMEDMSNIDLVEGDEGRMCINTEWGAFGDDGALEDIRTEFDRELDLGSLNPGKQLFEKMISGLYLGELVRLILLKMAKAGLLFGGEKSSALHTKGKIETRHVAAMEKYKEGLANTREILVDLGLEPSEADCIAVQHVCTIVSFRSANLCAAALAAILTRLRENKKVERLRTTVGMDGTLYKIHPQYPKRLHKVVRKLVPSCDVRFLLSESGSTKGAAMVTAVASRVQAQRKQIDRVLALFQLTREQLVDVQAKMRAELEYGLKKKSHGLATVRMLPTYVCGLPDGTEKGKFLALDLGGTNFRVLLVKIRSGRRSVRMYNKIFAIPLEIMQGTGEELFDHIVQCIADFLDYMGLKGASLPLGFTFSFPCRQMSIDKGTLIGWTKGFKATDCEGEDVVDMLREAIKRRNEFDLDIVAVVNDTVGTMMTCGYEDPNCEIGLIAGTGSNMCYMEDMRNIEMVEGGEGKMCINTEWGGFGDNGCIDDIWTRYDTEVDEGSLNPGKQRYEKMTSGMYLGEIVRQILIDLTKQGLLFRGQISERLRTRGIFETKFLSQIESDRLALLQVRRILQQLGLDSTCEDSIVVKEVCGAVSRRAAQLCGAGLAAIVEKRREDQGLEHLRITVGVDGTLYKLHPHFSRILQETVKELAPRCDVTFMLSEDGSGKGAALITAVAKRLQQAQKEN

Cysteine protease ATG4B = molecular target: T2, Cysteine protease ATG4B (Homo sapiens, UniProt Q9Y4P1); type: functional;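 also: Fluorescence-based dose-response confirmation assay measuring inhibition of ATG4B activity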
T2 sequence (Q9Y4P1 whole entry): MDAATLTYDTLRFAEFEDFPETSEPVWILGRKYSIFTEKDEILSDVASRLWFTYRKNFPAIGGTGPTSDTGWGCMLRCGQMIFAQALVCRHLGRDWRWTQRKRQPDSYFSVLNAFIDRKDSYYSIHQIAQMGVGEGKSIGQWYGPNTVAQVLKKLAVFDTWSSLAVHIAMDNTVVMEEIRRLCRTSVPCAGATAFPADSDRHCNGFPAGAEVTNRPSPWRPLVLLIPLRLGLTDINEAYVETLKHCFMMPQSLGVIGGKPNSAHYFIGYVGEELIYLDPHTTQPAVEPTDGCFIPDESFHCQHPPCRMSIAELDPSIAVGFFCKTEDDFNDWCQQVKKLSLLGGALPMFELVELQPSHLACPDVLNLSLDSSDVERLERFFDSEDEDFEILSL

Vero = test: viability of Vero cells under compound – cytotoxicity control for flavivirus capping enzyme inhibitors (AID 588742); type: functional; details: Chlorocebus sabaeus
[5] = molecular target: T3, Tyrosyl-DNA phosphodiesterase 2 (Homo sapiens, UniProt O95551); test: potency against TDP2 phosphodiesterase activity – biochemical, epi absorbance, IC50, dose response (AID 743297)
T3 sequence (O95551 whole entry): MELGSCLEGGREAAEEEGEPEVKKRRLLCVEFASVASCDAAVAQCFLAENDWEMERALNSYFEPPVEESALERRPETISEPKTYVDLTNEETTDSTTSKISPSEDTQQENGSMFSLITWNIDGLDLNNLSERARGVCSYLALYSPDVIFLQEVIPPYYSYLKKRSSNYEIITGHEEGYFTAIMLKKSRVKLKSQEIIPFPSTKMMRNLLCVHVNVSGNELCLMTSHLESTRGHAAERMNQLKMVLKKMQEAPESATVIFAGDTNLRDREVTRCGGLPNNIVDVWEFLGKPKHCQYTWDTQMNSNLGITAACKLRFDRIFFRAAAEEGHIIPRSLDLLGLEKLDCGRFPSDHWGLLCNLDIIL

[6] = molecular target: T4, Histone-lysine N-methyltransferase NSD2 (Homo sapiens, UniProt O96028); type: biochemical
T4 sequence (O96028 whole entry): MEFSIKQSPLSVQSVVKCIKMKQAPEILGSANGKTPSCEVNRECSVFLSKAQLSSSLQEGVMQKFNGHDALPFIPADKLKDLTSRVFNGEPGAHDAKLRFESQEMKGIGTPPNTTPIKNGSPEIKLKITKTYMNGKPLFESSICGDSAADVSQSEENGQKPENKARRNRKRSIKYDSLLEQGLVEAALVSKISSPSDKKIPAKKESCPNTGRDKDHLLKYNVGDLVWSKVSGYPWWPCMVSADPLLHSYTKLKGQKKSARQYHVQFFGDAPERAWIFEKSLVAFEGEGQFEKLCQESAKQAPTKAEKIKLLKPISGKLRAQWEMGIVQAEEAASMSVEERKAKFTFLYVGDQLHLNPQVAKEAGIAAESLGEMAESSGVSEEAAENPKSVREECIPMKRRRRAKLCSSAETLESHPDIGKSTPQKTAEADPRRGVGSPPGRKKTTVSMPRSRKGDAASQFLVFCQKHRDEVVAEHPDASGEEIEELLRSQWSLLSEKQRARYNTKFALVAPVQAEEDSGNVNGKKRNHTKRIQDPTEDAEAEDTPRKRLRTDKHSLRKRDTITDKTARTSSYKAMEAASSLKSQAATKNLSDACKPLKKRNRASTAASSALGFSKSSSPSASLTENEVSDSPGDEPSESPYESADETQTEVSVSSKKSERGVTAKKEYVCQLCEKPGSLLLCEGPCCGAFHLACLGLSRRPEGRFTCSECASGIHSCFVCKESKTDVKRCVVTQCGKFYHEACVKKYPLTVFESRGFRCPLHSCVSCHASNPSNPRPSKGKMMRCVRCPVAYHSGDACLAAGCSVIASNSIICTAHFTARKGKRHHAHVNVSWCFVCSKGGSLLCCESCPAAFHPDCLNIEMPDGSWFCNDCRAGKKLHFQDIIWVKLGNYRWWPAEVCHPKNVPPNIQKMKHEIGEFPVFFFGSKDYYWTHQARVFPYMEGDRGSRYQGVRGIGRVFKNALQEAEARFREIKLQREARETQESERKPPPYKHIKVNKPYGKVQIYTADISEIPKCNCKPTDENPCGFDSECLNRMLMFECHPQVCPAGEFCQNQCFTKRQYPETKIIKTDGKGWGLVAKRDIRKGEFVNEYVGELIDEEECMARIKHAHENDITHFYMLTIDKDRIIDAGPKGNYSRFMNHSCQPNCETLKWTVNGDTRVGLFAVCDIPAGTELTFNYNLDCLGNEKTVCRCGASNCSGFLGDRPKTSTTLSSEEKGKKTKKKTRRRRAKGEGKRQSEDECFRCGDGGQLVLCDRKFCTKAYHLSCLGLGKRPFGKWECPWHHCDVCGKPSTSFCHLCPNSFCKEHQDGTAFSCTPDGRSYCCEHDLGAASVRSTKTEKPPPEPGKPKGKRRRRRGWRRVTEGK

[7] = molecular target: Ras and Rab interactor 1/Tyrosine-protein kinase ABL1 (Homo sapiens, UniProt P00519+Q13671); type: functional;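 also: biochemical TR-FRET dose-response test measuring inhibition of binding between Rin1 and Abl proteins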
Ras and Rab interactor 1/Tyrosine-protein kinase ABL1, sequence (P00519 whole entry): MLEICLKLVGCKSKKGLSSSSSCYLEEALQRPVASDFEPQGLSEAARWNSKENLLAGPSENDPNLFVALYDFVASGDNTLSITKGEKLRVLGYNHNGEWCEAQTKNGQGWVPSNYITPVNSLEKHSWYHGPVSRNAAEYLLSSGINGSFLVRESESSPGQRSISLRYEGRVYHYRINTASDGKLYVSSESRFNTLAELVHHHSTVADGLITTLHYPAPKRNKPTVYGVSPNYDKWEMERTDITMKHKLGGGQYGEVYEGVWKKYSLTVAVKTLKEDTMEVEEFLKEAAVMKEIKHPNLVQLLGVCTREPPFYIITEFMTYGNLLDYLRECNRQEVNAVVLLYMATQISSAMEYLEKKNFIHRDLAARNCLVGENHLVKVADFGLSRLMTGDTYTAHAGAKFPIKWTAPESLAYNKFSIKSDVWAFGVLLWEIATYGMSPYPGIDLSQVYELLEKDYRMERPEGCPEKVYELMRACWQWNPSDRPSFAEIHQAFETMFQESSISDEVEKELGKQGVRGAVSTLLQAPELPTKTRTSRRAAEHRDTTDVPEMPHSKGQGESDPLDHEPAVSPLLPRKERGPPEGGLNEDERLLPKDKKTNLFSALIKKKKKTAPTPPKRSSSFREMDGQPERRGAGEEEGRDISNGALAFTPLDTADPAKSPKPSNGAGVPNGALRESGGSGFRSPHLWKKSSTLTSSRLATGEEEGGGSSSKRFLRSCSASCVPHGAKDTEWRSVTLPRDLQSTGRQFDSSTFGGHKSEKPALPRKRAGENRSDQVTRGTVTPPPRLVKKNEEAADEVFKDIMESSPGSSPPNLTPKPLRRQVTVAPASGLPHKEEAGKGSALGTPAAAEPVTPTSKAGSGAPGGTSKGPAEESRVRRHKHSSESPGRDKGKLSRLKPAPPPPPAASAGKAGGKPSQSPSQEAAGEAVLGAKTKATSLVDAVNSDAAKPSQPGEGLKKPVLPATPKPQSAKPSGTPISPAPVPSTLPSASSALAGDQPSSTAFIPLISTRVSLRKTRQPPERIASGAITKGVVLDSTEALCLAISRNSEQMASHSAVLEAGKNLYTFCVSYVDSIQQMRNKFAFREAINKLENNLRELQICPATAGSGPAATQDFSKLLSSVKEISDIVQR
Ras and Rab interactor 1/Tyrosine-protein kinase ABL1, sequence (Q13671 whole entry): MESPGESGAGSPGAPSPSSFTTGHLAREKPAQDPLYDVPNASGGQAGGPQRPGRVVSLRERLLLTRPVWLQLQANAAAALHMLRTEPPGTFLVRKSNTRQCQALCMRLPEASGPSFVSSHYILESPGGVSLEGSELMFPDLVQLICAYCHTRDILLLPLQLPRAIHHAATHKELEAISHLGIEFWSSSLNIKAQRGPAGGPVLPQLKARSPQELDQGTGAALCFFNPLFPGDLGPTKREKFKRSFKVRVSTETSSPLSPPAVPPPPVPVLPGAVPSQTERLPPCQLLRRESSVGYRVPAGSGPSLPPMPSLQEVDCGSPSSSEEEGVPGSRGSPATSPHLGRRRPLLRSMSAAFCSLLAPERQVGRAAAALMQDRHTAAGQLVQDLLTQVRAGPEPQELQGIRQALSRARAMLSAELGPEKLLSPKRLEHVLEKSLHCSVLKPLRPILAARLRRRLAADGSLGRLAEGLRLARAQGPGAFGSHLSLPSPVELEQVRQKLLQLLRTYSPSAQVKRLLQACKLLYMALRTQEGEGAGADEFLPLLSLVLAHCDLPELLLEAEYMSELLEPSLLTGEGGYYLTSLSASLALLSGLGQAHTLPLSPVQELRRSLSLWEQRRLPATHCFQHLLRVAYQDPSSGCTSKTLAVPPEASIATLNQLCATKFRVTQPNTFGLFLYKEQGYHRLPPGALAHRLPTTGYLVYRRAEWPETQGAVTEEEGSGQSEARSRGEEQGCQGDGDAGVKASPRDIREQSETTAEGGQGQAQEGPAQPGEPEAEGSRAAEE

Paired box protein Pax-8, sequence (Q06710 whole entry): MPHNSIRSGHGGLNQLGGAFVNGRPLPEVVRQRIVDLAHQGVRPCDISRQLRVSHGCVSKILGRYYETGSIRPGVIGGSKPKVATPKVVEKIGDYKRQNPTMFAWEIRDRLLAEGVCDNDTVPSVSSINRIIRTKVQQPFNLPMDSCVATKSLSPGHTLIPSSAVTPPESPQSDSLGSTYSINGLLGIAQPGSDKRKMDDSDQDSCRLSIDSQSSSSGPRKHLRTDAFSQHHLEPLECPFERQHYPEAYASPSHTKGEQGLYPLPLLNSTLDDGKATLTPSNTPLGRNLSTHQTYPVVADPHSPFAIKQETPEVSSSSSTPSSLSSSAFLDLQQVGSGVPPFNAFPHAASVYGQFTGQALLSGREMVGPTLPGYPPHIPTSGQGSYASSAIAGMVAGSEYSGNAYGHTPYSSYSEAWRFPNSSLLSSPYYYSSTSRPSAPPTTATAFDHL
Mitochondrial peptide methionine sulfoxide reductase, sequence (P54149 whole entry): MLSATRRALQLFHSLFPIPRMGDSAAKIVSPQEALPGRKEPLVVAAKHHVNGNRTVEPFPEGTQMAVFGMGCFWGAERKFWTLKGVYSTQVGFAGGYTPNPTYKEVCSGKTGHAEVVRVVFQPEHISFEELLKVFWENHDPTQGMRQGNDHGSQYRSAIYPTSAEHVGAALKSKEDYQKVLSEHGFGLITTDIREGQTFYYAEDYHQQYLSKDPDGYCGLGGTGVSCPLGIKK
Phospholipase A2, sequence (P04054 whole entry): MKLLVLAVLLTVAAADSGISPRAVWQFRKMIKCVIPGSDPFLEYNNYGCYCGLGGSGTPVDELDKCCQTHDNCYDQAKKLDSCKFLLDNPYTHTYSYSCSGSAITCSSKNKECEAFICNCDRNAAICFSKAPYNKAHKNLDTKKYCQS
Genome polyprotein, sequence (P29990 2492-3391 limits assumed): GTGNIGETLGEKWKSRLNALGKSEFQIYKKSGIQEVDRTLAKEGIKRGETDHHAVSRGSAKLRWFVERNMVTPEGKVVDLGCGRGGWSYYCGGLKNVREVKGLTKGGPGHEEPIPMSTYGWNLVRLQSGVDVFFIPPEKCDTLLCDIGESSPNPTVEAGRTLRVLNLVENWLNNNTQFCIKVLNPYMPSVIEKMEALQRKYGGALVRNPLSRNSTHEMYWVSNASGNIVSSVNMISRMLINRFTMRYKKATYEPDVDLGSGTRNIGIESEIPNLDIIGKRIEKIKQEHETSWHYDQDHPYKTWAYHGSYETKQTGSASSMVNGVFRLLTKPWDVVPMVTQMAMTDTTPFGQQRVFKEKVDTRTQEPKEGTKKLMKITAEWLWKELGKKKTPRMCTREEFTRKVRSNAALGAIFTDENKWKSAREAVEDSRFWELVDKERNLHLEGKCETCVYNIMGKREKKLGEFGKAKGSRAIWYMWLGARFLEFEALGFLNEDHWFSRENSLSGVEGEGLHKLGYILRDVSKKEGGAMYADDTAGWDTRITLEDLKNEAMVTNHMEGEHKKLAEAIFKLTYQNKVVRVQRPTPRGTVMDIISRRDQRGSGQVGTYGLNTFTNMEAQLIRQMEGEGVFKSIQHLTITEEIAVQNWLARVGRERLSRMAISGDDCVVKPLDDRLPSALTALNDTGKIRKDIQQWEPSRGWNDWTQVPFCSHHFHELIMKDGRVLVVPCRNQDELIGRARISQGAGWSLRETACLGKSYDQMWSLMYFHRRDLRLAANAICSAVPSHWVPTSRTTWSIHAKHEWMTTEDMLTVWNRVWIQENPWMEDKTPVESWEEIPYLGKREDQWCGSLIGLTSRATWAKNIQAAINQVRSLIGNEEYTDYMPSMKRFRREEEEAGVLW

For `COC1=CC(=O)c2c(ccc3ncnc(N)c23)C1=O`, the EC50 [1] was 14.1 µM (inactive), the CC50 [2] was 10.4 µM (active) and the AC50 [3] was 9.49 µM (active). For the same molecule, the AC50 [4] was 2.53 µM (active), the IC50 (Genome polyprotein) was 62.4 µM (active) and the IC50 (Phospholipase A2) was > 80 µM (inactive). The AC50 (Paired box protein Pax-8) was 1.06 µM (active), the IC50 (Hexokinase HKDC1) was 1.56 µM (active) and the IC50 (Cysteine protease ATG4B) was 6.81 µM (active). The CC50 (Vero) was 4.63 µM (active), the IC50 [5] was 0.842 µM (active) and the AC50 [6] was 1.28 µM (active). For the same molecule, the IC50 [7] was > 73.4 µM (inactive).

— ChEMBL document CHEMBL1201862, “PubChem BioAssay data set” (2004)
